Numbers after ± are expanded uncertainties.
Assay: activity coefficient (dimensionless); of the first substance listed, at infinite dilution; xn = mol fraction of the nth substance listed
Details: Liquid, x1 = 0

Structure (SMILES)	activity coefficient (303.15 K, Chromatography)	activity coefficient (313.15 K, Chromatography)	activity coefficient (323.15 K, Chromatography)	activity coefficient (333.15 K, Chromatography)	activity coefficient (303.15 K, dilutor)	activity coefficient (313.15 K, dilutor)	activity coefficient (323.15 K, dilutor)	activity coefficient (333.15 K, dilutor)
CCCO [propan-1-ol] + CCCCCC[n+]1ccn(C)c1.O=S(=O)([N-]S(=O)(=O)C(F)(F)F)C(F)(F)F	1.9 ± 0.08	1.71 ± 0.07	1.57 ± 0.06	1.45 ± 0.05	–	–	–	–
C1CCCC1 [cyclopentane] + CCCCCCCCn1cc[n+](C)c1.O=S(=O)([N-]S(=O)(=O)C(F)(F)F)C(F)(F)F	–	–	–	–	2.68 ± 0.13	2.64 ± 0.13	2.59 ± 0.13	2.56 ± 0.13
CCCCCCCC [octane] + CCCCCCCCn1cc[n+](C)c1.O=S(=O)([N-]S(=O)(=O)C(F)(F)F)C(F)(F)F	8.92 ± 0.41	8.43 ± 0.39	8.14 ± 0.37	7.82 ± 0.36	–	–	–	–
C1CCCCC1 [cyclohexane] + CCCC[N+]1(C)CCCC1.O=S(=O)([N-]S(=O)(=O)C(F)(F)F)C(F)(F)F	–	–	–	–	8.75 ± 0.44	8.43 ± 0.42	7.91 ± 0.4	7.42 ± 0.37
CCCCCCC [heptane] + CCCCCC[n+]1ccn(C)c1.O=S(=O)([N-]S(=O)(=O)C(F)(F)F)C(F)(F)F	11.2 ± 0.5	10.6 ± 0.5	10 ± 0.5	9.67 ± 0.44	11 ± 0.6	10.6 ± 0.5	10.1 ± 0.5	9.77 ± 0.49
C=CCCCCCC [oct-1-ene] + CCCCCC[n+]1ccn(C)c1.O=S(=O)([N-]S(=O)(=O)C(F)(F)F)C(F)(F)F	8.81 ± 0.4	8.47 ± 0.39	8.18 ± 0.38	7.9 ± 0.36	8.28 ± 0.41	8.08 ± 0.4	7.92 ± 0.4	7.77 ± 0.39
CCO [ethanol] + CCCC[N+]1(C)CCCC1.O=S(=O)([N-]S(=O)(=O)C(F)(F)F)C(F)(F)F	–	–	–	–	1.84 ± 0.09	1.73 ± 0.09	1.63 ± 0.08	1.5 ± 0.08
CCC(C)(C)OC [2-methoxy-2-methylbutane] + CCCCCC[n+]1ccn(C)c1.O=S(=O)([N-]S(=O)(=O)C(F)(F)F)C(F)(F)F	1.83 ± 0.08	1.9 ± 0.08	1.94 ± 0.09	2.02 ± 0.09	–	–	–	–
CCCCCCC [heptane] + CCCC[N+]1(C)CCCC1.O=S(=O)([N-]S(=O)(=O)C(F)(F)F)C(F)(F)F	–	–	–	–	20.7 ± 1	19.3 ± 1	18.2 ± 0.9	17.2 ± 0.9
C=CCCCCC [1-heptene] + CCCC[N+]1(C)CCCC1.O=S(=O)([N-]S(=O)(=O)C(F)(F)F)C(F)(F)F	–	–	–	–	10.4 ± 0.5	9.97 ± 0.5	9.69 ± 0.48	9.37 ± 0.47
CCCCCC [hexane] + CCCCCC[n+]1ccn(C)c1.O=S(=O)([N-]S(=O)(=O)C(F)(F)F)C(F)(F)F	8.23 ± 0.38	7.82 ± 0.36	7.48 ± 0.34	7.27 ± 0.33	7.82 ± 0.39	7.55 ± 0.38	6.96 ± 0.35	6.55 ± 0.33
C1CCOC1 [tetrahydrofuran] + CCCCCC[n+]1ccn(C)c1.O=S(=O)([N-]S(=O)(=O)C(F)(F)F)C(F)(F)F	0.49 ± 0.03	0.51 ± 0.03	0.53 ± 0.03	0.55 ± 0.03	–	–	–	–
C=CCCCCC [1-heptene] + CCCCCC[n+]1ccn(C)c1.O=S(=O)([N-]S(=O)(=O)C(F)(F)F)C(F)(F)F	6.46 ± 0.3	6.28 ± 0.29	6.09 ± 0.28	5.96 ± 0.27	6.28 ± 0.31	6.12 ± 0.31	5.96 ± 0.3	5.86 ± 0.29
Cc1cccc(C)c1 [1,3-dimethylbenzene] + CCCCCC[n+]1ccn(C)c1.O=S(=O)([N-]S(=O)(=O)C(F)(F)F)C(F)(F)F	1.4 ± 0.05	1.41 ± 0.05	1.46 ± 0.06	1.5 ± 0.06	–	–	–	–
CC(C)=O [acetone] + CCCCCC[n+]1ccn(C)c1.O=S(=O)([N-]S(=O)(=O)C(F)(F)F)C(F)(F)F	–	–	–	–	0.31 ± 0.02	0.32 ± 0.02	0.34 ± 0.02	0.34 ± 0.02
Cc1ccccc1 [toluene] + CCCCCCCCn1cc[n+](C)c1.O=S(=O)([N-]S(=O)(=O)C(F)(F)F)C(F)(F)F	0.82 ± 0.03	0.83 ± 0.03	0.85 ± 0.03	0.85 ± 0.03	–	–	–	–
CC(C)OC(C)C [diisopropyl ether] + CCCCCC[n+]1ccn(C)c1.O=S(=O)([N-]S(=O)(=O)C(F)(F)F)C(F)(F)F	2.76 ± 0.13	2.82 ± 0.13	2.85 ± 0.13	2.92 ± 0.13	–	–	–	–
CCCC(C)=O [pentan-2-one] + CCCC[N+]1(C)CCCC1.O=S(=O)([N-]S(=O)(=O)C(F)(F)F)C(F)(F)F	–	–	–	–	0.63 ± 0.03	0.66 ± 0.03	0.68 ± 0.03	0.71 ± 0.04
CCCCC [pentane] + CCCC[N+]1(C)CCCC1.O=S(=O)([N-]S(=O)(=O)C(F)(F)F)C(F)(F)F	–	–	–	–	9.22 ± 0.46	9.18 ± 0.46	8.62 ± 0.43	8.29 ± 0.41
CCO [ethanol] + CCCCCCCCn1cc[n+](C)c1.O=S(=O)([N-]S(=O)(=O)C(F)(F)F)C(F)(F)F	1.46 ± 0.06	1.34 ± 0.05	1.22 ± 0.04	1.12 ± 0.03	–	–	–	–
CCCO [propan-1-ol] + CCCCCCCCn1cc[n+](C)c1.O=S(=O)([N-]S(=O)(=O)C(F)(F)F)C(F)(F)F	1.67 ± 0.07	1.51 ± 0.06	1.35 ± 0.05	1.24 ± 0.04	–	–	–	–
C=CCCCC [hex-1-ene] + CCCCCC[n+]1ccn(C)c1.O=S(=O)([N-]S(=O)(=O)C(F)(F)F)C(F)(F)F	4.71 ± 0.21	4.61 ± 0.21	4.48 ± 0.2	4.44 ± 0.2	4.64 ± 0.23	4.56 ± 0.23	4.48 ± 0.22	4.39 ± 0.22
O [water] + CCCCCCCCn1cc[n+](C)c1.O=S(=O)([N-]S(=O)(=O)C(F)(F)F)C(F)(F)F	3.89 ± 0.18	3.52 ± 0.16	3.03 ± 0.14	2.58 ± 0.12	3.76 ± 0.19	3.51 ± 0.18	3.29 ± 0.16	–
CCCCCC [hexane] + CCCCCCCCn1cc[n+](C)c1.O=S(=O)([N-]S(=O)(=O)C(F)(F)F)C(F)(F)F	5.32 ± 0.24	5.13 ± 0.23	4.92 ± 0.22	4.8 ± 0.22	5.44 ± 0.27	5.26 ± 0.26	5.13 ± 0.26	4.97 ± 0.25
CCC(C)=O [butanone] + CCCCCC[n+]1ccn(C)c1.O=S(=O)([N-]S(=O)(=O)C(F)(F)F)C(F)(F)F	0.41 ± 0.03	0.42 ± 0.03	0.44 ± 0.03	0.44 ± 0.03	–	–	–	–
Cc1ccccc1C [1,2-dimethylbenzene] + CCCCCCCCn1cc[n+](C)c1.O=S(=O)([N-]S(=O)(=O)C(F)(F)F)C(F)(F)F	0.98 ± 0.03	1.03 ± 0.03	1.03 ± 0.03	1.05 ± 0.03	–	–	–	–

Source: the NIST ThermoML archive (doi:10.1016/j.jct.2005.04.010)
